The numbers were not newly measured in patent US10813968B2, “Method of treating a human suffering from post exercise muscle soreness” (Provexis Natural Products Limited, priority 2012, dated 2020), which cites them from elsewhere.

The conditions of this data set: 3 hours after supplementation supplying 200 μg folic acid.

On to `Nc1nc2ncc(CNc3ccc(C(=O)N[C@@H](CCC(=O)O)C(=O)O)cc3)nc2c(=O)[nH]1` [folic acid], for which the “typical plasma folate concentration” value is 5 ng/mL.
